Data published in ChEMBL document CHEMBL1159253, “Two new cytotoxic monotetrahydrofuran Annonaceous acetogenins, annomuricins A and B, from the leaves of Annona muricata” (J Nat Prod, 1995).
In brackets after ≈: the same amount, converted by molar mass.

Tests used:
A549 = test: Cytotoxicity against human A549 cells after 7 days by MTT assay; format: functional; conditions: for EC50: Homo sapiens, A549, 168 h, read-out: ED50 (the source's name)
MCF7 = test: Cytotoxicity against human MCF7 cells after 7 days by MTT assay; format: functional; conditions: for EC50: Homo sapiens, MCF7, 168 h, read-out: ED50 (the source's name)
HT-29 = test: Cytotoxicity against human HT-29 cells after 7 days by MTT assay; format: functional; conditions: HT-29, 168 h, read-out: ED50 (the source's name)
[1] = Toxicity against brine shrimp; format: organism-based; conditions: artemia, in vivo

Row | Structure (SMILES) | ED50 (A549) [×10⁻⁴ ug/ml] | ED50 (MCF7) [×10⁻⁴ ug/ml] | EC50 (HT-29) [µg/mL] | LC50 [1] [µg/mL] | EC50 (A549) [µg/mL] | EC50 (MCF7) [µg/mL]
1 | CCCCCCCCCCCC[C@H](O)[C@H]1CC[C@H]([C@H](O)CCC[C@H]2OC(C)(C)O[C@@H]2CCCCC[C@@H](O)CC2=C[C@H](C)OC2=O)O1 | 1.58 | 2.78 | > 1 | 0.131 (≈ 0.201 µM) | – | –
2 | CCCCCCCCCCCC[C@H](O)[C@H]1CC[C@H]([C@H](O)CCC[C@@H]2OC(C)(C)O[C@@H]2CCCCC[C@@H](O)CC2=C[C@H](C)OC2=O)O1 | 3.41 | 1.41 | 0.0933 (≈ 0.143 µM) | 0.18 (≈ 0.276 µM) | – | –
3 | CCCCCCCCCCCC[C@H](O)[C@H]1CC[C@H]([C@H](O)CCC[C@@H](O)[C@H](O)CCCCC[C@@H](O)CC2=C[C@H](C)OC2=O)O1 [ANNOMURICIN A] | – | – | > 1 | 0.625 (≈ 1.02 µM) | 0.33 (≈ 0.538 µM) | > 1
4 | CCCCCCCCCCCC[C@H](O)[C@H]1CC[C@H]([C@H](O)CCC[C@H](O)[C@H](O)CCCCC[C@@H](O)CC2=C[C@H](C)OC2=O)O1 [ANNOMURICIN B] | – | – | 0.435 (≈ 0.71 µM) | 0.687 (≈ 1.12 µM) | 0.159 (≈ 0.259 µM) | > 1
5 | COc1cccc2c1C(=O)c1c(O)c3c(c(O)c1C2=O)C[C@@](O)(C(=O)CO)C[C@@H]3O[C@H]1C[C@H](N)[C@H](O)[C@H](C)O1 [DOXORUBICIN] | – | – | 0.0275 (≈ 0.0506 µM) | – | 0.0101 (≈ 0.0186 µM) | 0.126 (≈ 0.232 µM)
